Patent EP4678635A1, “CRYSTAL FORM OF NIROGACESTAT DIHYDROBROMATE, AND PREPARATION METHOD THEREFOR AND USE THEREOF” (Crystal Pharmaceutical (Suzhou) Co., Ltd., priority 2023, dated 2024)
≈ marks a conversion by molar mass, not a printed value. Like-named read-outs stand apart in the source and are kept apart here.

Assays:
Format in all cases: physicochemical
[1] = Kinetic solubility in FaSSIF and FeSSIF
Protocol: Table 2 [table] When solubility test is used to predict the in vivo performance of a drug, it is critical to simulate in vivo conditions as closely as possible. For oral drugs, FaSSIF and FeSSIF can be used to simulate the conditions in vivo and predict the effect of eating. Solubilities in these media are closer to those in vivo. Appropriate amounts of Form CSVI were suspended in FaSSIF and FeSSIF at 37 °C. After equilibration for 0.5 h, the suspensions were filtered and the concentration (mg/mL) of Compound I in each filtrate was measured by HPLC. […]

Bulk and tapped density = settings: for Bulk density: about 500 mg in 5-mL graduated cylinder, before tapping; for Tapped density: tapped 1250 times
Protocol: About 500 mg of sample was gently loaded into a 5-mL graduated cylinder to measure the bulk volume before tapping. The sample was then tapped 1250 times on a ZS-2E tap density tester to achieve a tapped state, and the tapped volume was recorded. The bulk density ρ0 and tapped density ρf were calculated accordingly.

[2] = Compressibility (tensile strength of tablets, manual tablet press); settings: about 60 mg, Φ6mm round tooling, pressure of 3 kN, 24 h at RT; T=2H/πDL
Protocol: (§1) Tablets were prepared by an ENERPAC manual tablet press. About 60 mg of Form CSV and the prior art Form A were separately added to Φ6mm round tooling punches and compressed into tablets under a pressure of 3 kN. The tablets were left at RT for 24 h to allow complete elastic recovery. The diameter (D) and thickness (L) were measured using a vernier caliper, and their radial crushing strength (hardness, H) was determined using a tablet hardness tester. The tensile strength (T) of the powders was calculated with the following formula: T=2H/πDL. […] Under a certain force, higher tensile strength indicates better compressibility.
as §1, with “CSVI” for “CSV”

[3] = Stability under mechanical force: ball milling, XRPD; settings: ball milling at 500 rpm for 5 minutes
Protocol: An appropriate amount of Form CSV was subjected to ball milling at 500 rpm for 5 minutes using a ball mill. […]
An appropriate amount of Form CSVI was subjected to ball milling at 500 rpm for 5 minutes using a ball mill. […]

[4] = Stability under mechanical force: tableting under different pressures, XRPD; settings: Φ6mm round tooling punch
Protocol: An appropriate amount of Form CSV was compressed into tablets under different pressures with a Φ6mm round tooling punch. XRPD tests were conducted before and after compression. The test results are listed in Table 6, and the XRPD overlay is depicted in Figure 5.
An appropriate amount of Form CSVI was compressed into tablets under different pressures with a Φ6mm round tooling punch. XRPD tests were conducted before and after compression. The test results are listed in Table 10, and the XRPD overlay is depicted in Figure 12.

[5] = Storage stability (crystalline form by XRPD, purity by HPLC); settings: for Solid form / remains stable for at least / Crystalline form: sealed container; for Solid form / Crystalline form: XRPD; for Solid form: initial Form CSVI; for Purity (%): HPLC, initial purity 99.51; for Crystalline form: initial Form CSV
Protocol: (§2) An appropriate amount of Form CSV was packaged in a sealed container and then stored under the conditions of 25 °C/60%RH, 40 °C/75%RH and 60 °C/75%RH, respectively. Crystalline form and purity were analyzed by XRPD and HPLC. The results are listed in Table 5, and the XRPD pattern overlay is depicted in Figure 4. […] Meanwhile, Form CSV remains stable for at least 2 months under 60 °C/75%RH condition, indicating Form CSV has good stability under stress condition as well.
as §2, with “CSVI” for “CSV”, “was” for “and purity were”, “XRPD.” for “XRPD and HPLC.”, “9,” for “5,”, “11.” for “4.”

Row | average tensile strength [2] | crystalline form before and after ball milling [3] | After tableting (crystalline form) ([4]; Pressure 5 kN) | After tableting (crystalline form) ([4]; Pressure 10 kN) | After tableting (crystalline form) ([4]; Pressure 20 kN) | remains stable for at least ([5]; 25 °C/60%RH) | remains stable for at least ([5]; 40 °C/75%RH) | remains stable for at least ([5]; 60 °C/75%RH) | Compound | other results
1 | 0.37 MPa |  |  |  |  |  |  |  | CCC[C@H](N[C@H]1CCc2cc(F)cc(F)c2C1)C(=O)Nc1cn(C(C)(C)CNCC(C)(C)C)cn1 [Form A, (S)-2-(((S)-6,8-difluoro-1,2,3,4-tetrahydronaphthalen-2-yl)amino)-N-(1-(2-methyl-1-(neopentylamino)propan-2-yl)-1H-imidazol-4-yl) pentanamide, reference compound] | solubility at 0.5 h ([1]; fassif, solubility (concentration of Compound I in filtrate)): 4200 µg/mL (≈ 8.58 mM); solubility at 0.5 h ([1]; solubility (concentration of Compound I in filtrate)): 7500 µg/mL (≈ 15.3 mM); Bulk density (Bulk and tapped density; listed as The prior art Form A): 0.251 g/mL; Tapped density (Bulk and tapped density; listed as The prior art Form A): 0.282 g/mL
2 | 0.907 MPa | remained unchanged | Form CSVI | Form CSVI | Form CSVI | at least 8 months | at least 8 months | at least 2 months | CCC[C@H](N[C@H]1CCc2cc(F)cc(F)c2C1)C(=O)Nc1cn(C(C)(C)CNCC(C)(C)C)cn1 [Form CSVI, (S)-2-(((S)-6,8-difluoro-1,2,3,4-tetrahydronaphthalen-2-yl)amino)-N-(1-(2-methyl-1-(neopentylamino)propan-2-yl)-1H-imidazol-4-yl) pentanamide] | solubility at 0.5 h ([1]; FeSSIF, 37 °C, equilibration for 0.5 h, HPLC, read-out: solubility (concentration of Compound I in filtrate)): 10100 µg/mL (≈ 20.6 mM); solubility at 0.5 h ([1]; fassif, 37 °C, equilibration for 0.5 h, HPLC, read-out: solubility (concentration of Compound I in filtrate)): 16100 µg/mL (≈ 32.9 mM); Solid form ([5]; 25 °C/60%RH, 8 months): Form CSVI; Solid form ([5]; 40 °C/75%RH, 8 months): Form CSVI; Solid form ([5]; 60 °C/75%RH, 2 months): Form CSVI
3 | 0.55 MPa | remained unchanged | Form CSV | Form CSV | Form CSV | at least 6 months | at least 6 months | at least 2 months | CCC[C@H](N[C@H]1CCc2cc(F)cc(F)c2C1)C(=O)Nc1cn(C(C)(C)CNCC(C)(C)C)cn1 [Form CSV, (S)-2-(((S)-6,8-difluoro-1,2,3,4-tetrahydronaphthalen-2-yl)amino)-N-(1-(2-methyl-1-(neopentylamino)propan-2-yl)-1H-imidazol-4-yl) pentanamide] | Purity (%) ([5]; 25 °C/60%RH, 6 months): 99.52%; Crystalline form ([5]; 25 °C/60%RH, 6 months): Form CSV; Purity (%) ([5]; 40 °C/75%RH, 6 months): 99.50%; Crystalline form ([5]; 40 °C/75%RH, 6 months): Form CSV; Purity (%) ([5]; 60 °C/75%RH, 2 months): 99.54%; Crystalline form ([5]; 60 °C/75%RH, 2 months): Form CSV; Bulk density (Bulk and tapped density): 0.422 g/mL; Tapped density (Bulk and tapped density): 0.506 g/mL
